Assay type in all cases: in vivo
For test [1], the system named is Blumeria graminis f. sp. hordei; Synonym: Erysiphe graminis f. sp. hordei. The experiment in a line: Barley Powdery Mildew (ERYSGH) disease control. The settings on record: Blumeria graminis, 24 h, 1 Day Protectant, read-out: Disease Control ERYSGH 1 DP. On the procedure:
Technical grades of materials were dissolved in acetone, which were then mixed with nine volumes of water containing 110 ppm Triton X-100. The fungicide solutions were applied onto wheat seedlings using an automated booth sprayer to run-off. All sprayed plants were allowed to air dry prior to further handling. All fungicides were evaluated using the aforementioned method for their activity vs. all target diseases. Wheat leaf blotch and brown rust activity were also evaluated using track spray applications, in which case the fungicides were formulated as EC formulations, containing 0.1% Trycol 5941 in the spray solutions. Wheat plants (variety Yuma) were grown from seed in a greenhouse in 50% mineral soil/50% soil-less Metro mix until the first leaf was fully emerged, with 7-10 seedlings per pot. These plants were inoculated with an aqueous spore suspension of Septoria tritici either prior to or after fungicide treatments. After inoculation the plants were kept in 100% relative humidity (one day in a dark dew chamber followed by two to three days in a lighted dew chamber at 20° C.) to permit spores to germinate and infect the leaf. The plants were then transferred to a greenhouse set at 20° C. for disease to develop. When disease symptoms were fully expressed on the 1st leaves of untreated plants, infection levels were assessed on a scale of 0 to 100 percent disease severity. Percent disease control was calculated using the ratio of disease severity on treated plants relative to untreated plants. Barley seedlings (variety Harrington) were propagated in soil-less Metro mix, with each pot having 8 to 12 plants, and used in the test when first leaf was fully emerged. Test plants were inoculated by dusting with infected stock plants 24 hr after fungicide treatments. After inoculation the plants were kept in a greenhouse set at 20° C. for disease to develop. Fungicide formulation, application and disease assessment on the sprayed leaves followed the procedures as described in the Example A.

The subject of test [2] is Cercospora beticola. In words: Leaf Spot of Sugar Beets (CERCBE) disease control. As to conditions: Cercospora beticola, topical, 24 h, 1 Day Protectant, sugar beet, read-out: Disease Control CERCBE 1 DP. On the procedure: Technical grades of materials were dissolved in acetone, which were then mixed with nine volumes of water containing 110 ppm Triton X-100. The fungicide solutions were applied onto wheat seedlings using an automated booth sprayer to run-off. All sprayed plants were allowed to air dry prior to further handling. All fungicides were evaluated using the aforementioned method for their activity vs. all target diseases. Wheat leaf blotch and brown rust activity were also evaluated using track spray applications, in which case the fungicides were formulated as EC formulations, containing 0.1% Trycol 5941 in the spray solutions. Wheat plants (variety Yuma) were grown from seed in a greenhouse in 50% mineral soil/50% soil-less Metro mix until the first leaf was fully emerged, with 7-10 seedlings per pot. These plants were inoculated with an aqueous spore suspension of Septoria tritici either prior to or after fungicide treatments. After inoculation the plants were kept in 100% relative humidity (one day in a dark dew chamber followed by two to three days in a lighted dew chamber at 20° C.) to permit spores to germinate and infect the leaf. The plants were then transferred to a greenhouse set at 20° C. for disease to develop. When disease symptoms were fully expressed on the 1st leaves of untreated plants, infection levels were assessed on a scale of 0 to 100 percent disease severity. Percent disease control was calculated using the ratio of disease severity on treated plants relative to untreated plants. Sugar beet plants (variety HH88) were grown in soil-less Metro mix and trimmed regularly to maintain a uniform plant size prior to test. Plants were inoculated with a spore suspension 24 hr after fungicide treatments. Inoculated plants were kept in a dew chamber at 22° C. for 48 hr then incubated in a greenhouse set at 24° C. under a clear plastic hood with bottom ventilation until disease symptoms were fully expressed. Fungicide formulation, application and disease assessment on the sprayed leaves followed the procedures as described in the Example A.

The subject of test [3] is Phakopsora pachyrhizi. In words: Asian Soybean Rust (PHAKPA) disease control. The settings on record: Phakopsora pachyrhizi, topical. On the procedure: Technical grades of materials were dissolved in acetone, which were then mixed with nine volumes of water containing 0.011% Tween 20. The fungicide solutions were applied onto soybean seedlings using an automated booth sprayer to run-off. All sprayed plants were allowed to air dry prior to further handling.
Soybean plants (variety Williams 82) were grown in soil-less Metro mix, with one plant per pot. Two weeks old seedlings were used for testing. Plants were inoculated either 3 days prior to or 1 day after fungicide treatments. Plants were incubated for 24 h in a dark dew room at 22° C. and 100% RH then transferred to a growth room at 23° C. for disease to develop. Disease severity was assessed on the sprayed leaves.

Test [4] deals with Leptosphaeria nodorum. In words: Wheat Glume Blotch (LEPTNO) disease control. As to conditions: Parastagonospora nodorum, topical, 24 h, 1 Day Protectant, read-out: Disease Control LEPTNO 1 DP. On the procedure: Technical grades of materials were dissolved in acetone, which were then mixed with nine volumes of water containing 110 ppm Triton X-100. The fungicide solutions were applied onto wheat seedlings using an automated booth sprayer to run-off. All sprayed plants were allowed to air dry prior to further handling. All fungicides were evaluated using the aforementioned method for their activity vs. all target diseases. Wheat leaf blotch and brown rust activity were also evaluated using track spray applications, in which case the fungicides were formulated as EC formulations, containing 0.1% Trycol 5941 in the spray solutions. Wheat plants (variety Yuma) were grown from seed in a greenhouse in 50% mineral soil/50% soil-less Metro mix until the first leaf was fully emerged, with 7-10 seedlings per pot. These plants were inoculated with an aqueous spore suspension of Septoria tritici either prior to or after fungicide treatments. After inoculation the plants were kept in 100% relative humidity (one day in a dark dew chamber followed by two to three days in a lighted dew chamber at 20° C.) to permit spores to germinate and infect the leaf. The plants were then transferred to a greenhouse set at 20° C. for disease to develop. When disease symptoms were fully expressed on the 1st leaves of untreated plants, infection levels were assessed on a scale of 0 to 100 percent disease severity. Percent disease control was calculated using the ratio of disease severity on treated plants relative to untreated plants. Wheat plants (variety Yuma) were grown from seed in a greenhouse in 50% mineral soil/50% soil-less Metro mix until the first leaf was fully emerged, with 7-10 seedlings per pot. These plants were inoculated with an aqueous spore suspension of Leptosphaeria nodorum 24 hr after fungicide treatments. After inoculation the plants were kept in 100% relative humidity (one day in a dark dew chamber followed by two days in a lighted dew chamber at 20° C.) to permit spores to germinate and infect the leaf. The plants were then transferred to a greenhouse set at 20° C. for disease to develop. Fungicide formulation, application and disease assessment followed the procedures as described in the Example A.

[5] abbreviates: 24 h, 1 Day Protectant, read-out: Disease Control PHAKPA 1DP.
Where [6] appears, read: 72 h, 3 Day Curative, read-out: Disease Control PHAKPA 3DC.

Read-outs that look alike come from different tables or passages of the source.

For `COc1ccnc(C(=O)N[C@H]2CCC[C@H](CCBr)[C@@H](Oc3ccccc3)[C@H](C)OC2=O)c1OC(C)=O` [Compound F80], the pest or weed control at 100 ppm in test [1] was in the range of 0 to 80%; in test [2], 80 to 100%. The figures for the pest or weed control at 25 ppm in test [3] (setting [5]) and in test [3] (setting [6]) were 80 to 100% and 0 to 80%, respectively.
On to `COc1ccc(C[C@H]2CCC[C@H](NC(=O)c3nccc(OC)c3OCOC(C)=O)C(=O)O[C@@H](C)[C@@H]2OCC(C)C)cc1` [Compound F118], for which the pest or weed control at 100 ppm in test [2] was in the range of 80 to 100%. Moreover, the pest or weed control at 25 ppm lay within 80 to 100% in test [3] (setting [5]) and 0 to 80% in test [3] (setting [6]).
Regarding `COc1ccnc(C(=O)N[C@H]2CCC[C@H](Cc3ccc(C)cc3)[C@@H](OCC(C)C)[C@H](C)OC2=O)c1OCOC(C)=O` [Compound F126], in test [2], the pest or weed control at 100 ppm was in the range of 80 to 100%.
In the case of `CCCO[C@@H]1[C@@H](Cc2ccc(F)cc2)CCC[C@H](NC(=O)c2nccc(OC)c2OCOC(C)=O)C(=O)O[C@H]1C` [Compound F101], the pest or weed control at 100 ppm in test [1] and in test [2] was 80 to 100% each time. Moreover, the pest or weed control at 25 ppm in test [3] (setting [5]) was in the range of 80 to 100%; in test [3] (setting [6]), 0 to 80%.
`COc1ccc(C[C@H]2CCC[C@H](NC(=O)c3nccc(OC)c3OCOC(C)=O)C(=O)O[C@@H](C)[C@@H]2Oc2ccccc2)cc1` [Compound F114]: the pest or weed control at 100 ppm in test [2] lay within 80 to 100%.
Regarding `COc1ccnc(C(=O)N[C@H]2CCC[C@H](Cc3ccccc3)[C@@H](OCC3CC3)[C@H](C)OC2=O)c1OCOC(=O)C(C)C` [Compound F152], the pest or weed control at 100 ppm in test [1] and in test [2] was 80 to 100% each time. Also, the pest or weed control at 25 ppm in test [3] (setting [5]) and in test [3] (setting [6]) was 80 to 100% throughout.
`COc1ccnc(C(=O)N[C@H]2CCC[C@H](CC(F)F)[C@@H](Oc3ccccc3)[C@H](C)OC2=O)c1OC(C)=O` [Compound F82]: the pest or weed control at 100 ppm in test [1] is 0 to 80%; in test [2] it was 80 to 100%. In addition, the pest or weed control at 25 ppm in test [3] (setting [5]) and in test [3] (setting [6]) was 80 to 100% each time.
Turning to `COc1ccnc(C(=O)N[C@H]2CCC[C@H](Cc3ccc(F)cc3F)[C@@H](OC(=O)c3ccco3)[C@H](C)OC2=O)c1OCOC(=O)C(C)C` [Compound F157], the pest or weed control at 100 ppm in test [2] and in test [4] was 80 to 100% throughout. Further, the pest or weed control at 25 ppm in test [3] (setting [5]) was in the range of 0 to 80%.
`CCCO[C@@H]1[C@@H](Cc2ccc(OC)cc2)CCC[C@H](NC(=O)c2nccc(OC)c2OCOC(C)=O)C(=O)O[C@H]1C` [Compound F119]: the pest or weed control at 100 ppm in test [2] lay within 80 to 100%. Also, the pest or weed control at 25 ppm fell in the range of 80 to 100% in test [3] (setting [5]) and 0 to 80% in test [3] (setting [6]).
As for `CCOCC(=O)OCOc1c(OC)ccnc1C(=O)N[C@H]1CCC[C@H](CC2CCCCC2)[C@@H](OCC(C)C)[C@H](C)OC1=O` [Compound F175], the pest or weed control at 100 ppm in test [1] and in test [2] was 80 to 100% throughout.
Take `CCOCC(=O)OCOc1c(OC)ccnc1C(=O)N[C@H]1CCC[C@H](Cc2ccccc2)[C@@H](OCC2CC2)[C@H](C)OC1=O` [Compound F173]: the pest or weed control at 100 ppm in test [1] and in test [2] was 80 to 100% throughout. Besides, the pest or weed control at 25 ppm in test [3] (setting [5]) and in test [3] (setting [6]) was 80 to 100% in each case.
`COc1ccnc(C(=O)N[C@H]2CCC[C@H](CC3CCCCC3)[C@@H](OCC(C)C)[C@H](C)OC2=O)c1OCOC(C)=O` [Compound F113]: the pest or weed control at 100 ppm in test [1] and in test [2] was 80 to 100% each time. Moreover, the pest or weed control at 25 ppm in test [3] (setting [5]) lay within 80 to 100%; in test [3] (setting [6]) it was 0 to 80%.
Consider `COc1ccnc(C(=O)N[C@H]2CCC[C@H](Cc3ccc(F)cc3)[C@@H](OCC(C)C)[C@H](C)OC2=O)c1OCOC(C)=O` [Compound F102], for which the pest or weed control at 100 ppm in test [1] was in the range of 0 to 80%.
On to `COc1ccnc(C(=O)N[C@H]2CCC[C@H](Cc3ccccc3)[C@@H](OCC3CC3)[C@H](C)OC2=O)c1OCOC(C)=O` [Compound F107], for which the pest or weed control at 100 ppm in test [1] and in test [2] was 80 to 100% throughout. Also, the pest or weed control at 25 ppm in test [3] (setting [5]) and in test [3] (setting [6]) was 80 to 100% in each case.
`CC[C@H]1CCC[C@H](NC(=O)c2nccc(OC)c2OC(C)=O)C(=O)O[C@@H](C)[C@@H]1Oc1ccccc1` [Compound F81]: the pest or weed control at 100 ppm in test [1] was in the range of 0 to 80%; in test [2], 80 to 100%. The pest or weed control at 25 ppm in test [3] (setting [5]) and in test [3] (setting [6]) was 80 to 100% throughout.
With `COc1ccnc(C(=O)N[C@H]2CCC[C@H](CC(F)F)[C@@H](Oc3ccccc3)[C@H](C)OC2=O)c1OCOC(C)=O` [Compound F138], the pest or weed control at 100 ppm fell in the range of 0 to 80% in test [1] and 80 to 100% in test [2]. Moreover, the pest or weed control at 25 ppm in test [3] (setting [5]) and in test [3] (setting [6]) was 80 to 100% in each case.
Regarding `CCOCC(=O)OCOc1c(OC)ccnc1C(=O)N[C@H]1CCC[C@H](Cc2ccc(F)cc2)[C@@H](OCC(C)C)[C@H](C)OC1=O` [Compound F168], the pest or weed control at 100 ppm in test [1] is 80 to 100%. Besides, the pest or weed control at 25 ppm in test [3] (setting [5]) was in the range of 80 to 100%; in test [3] (setting [6]) it was 0 to 80%.
For the compound `COc1ccnc(C(=O)N[C@H]2CCC[C@H](Cc3ccc(F)cc3F)[C@@H](OC(=O)c3ccco3)[C@H](C)OC2=O)c1OCOC(C)=O` [Compound F144], the pest or weed control at 100 ppm lay in the range of 0 to 80% in test [2] and 80 to 100% in test [4]. Further, in test [3] (setting [5]), the pest or weed control at 25 ppm was 0 to 80%.
As to `CCCO[C@@H]1[C@@H](Cc2ccc(F)cc2)CCC[C@H](NC(=O)c2nccc(OC)c2OCOC(=O)COCC)C(=O)O[C@H]1C` [Compound F167], the pest or weed control at 100 ppm in test [1] and in test [2] was 80 to 100% each time. The pest or weed control at 25 ppm in test [3] (setting [5]) is 80 to 100%; in test [3] (setting [6]), 0 to 80%.
